Test results from patent publication US10555532B2, “Plant growth-promoting bacteria and methods of use” (priority 2013, dated 2020).

Columns and labels:
Soybeans = experiment: Soybean growth, bacteria with plant-growth-promoting chemicals; format: in vivo; details: 2 weeks
Procedure: (§1) The selected strains were grown in minimal media (KH2PO4 3 g, Na2HPO4 6 g, NH4Cl 1 g, NaCl 0.50 g, MgSO4 7H2O 0.15 g, CaCl2 2H2O 0.013 g, and glucose 1 g, per L dry weight).

Corn = Corn growth, bacteria with plant-growth-promoting chemicals; format: in vivo; details: 2 weeks
Procedure: as §1

Row | SMILES | Comparison to Uninoculated (Soybeans; soybean height) | Avg. Height (cm) (Soybeans; soybeans, with or without glycerol, 2,3-butanediol or yeast extract) | Comparison to Uninoculated (Corn; corn height) | Avg. Height (cm) (Corn; corn, with or without 2,3-butanediol or yeast extract)
1 | OCC(O)CO [Uninoculated and Glycerol, glycerol] | 109.8% | 12.34 cm | – | –
2 | CC(O)C(C)O (stereo not shown) [Uninoculated and 2,3-butanediol, 2,3-butanediol] | – | – | 105.8% | 16.03 cm
